From ChEMBL document CHEMBL1201862, “PubChem BioAssay data set” (2004)
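Following 48 hours of exposure in 96-well plates, responses at five concentrations were used to interpolate endpoints linearly. GI50 = concentration required for 50% inhibition of growth.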 Calls of active or inactive are those of the source. Rule as the data show it: active = GI50 up to about 1.1 µM and inactive = higher.

Key:
Assay in all cases: NCI-60 cell line screen, 48 h
Malme-3M = tested on: Malme-3M
UACC-257 = tested on: UACC-257
CAKI-1 = tested on: CAKI-1
OVCAR-8 = tested on: OVCAR-8
COLO 205 = tested on: COLO 205
Hs-578T = tested on: Hs-578T
BT-549 = tested on: BT-549
HT-29 = tested on: HT-29
786-0 = tested on: 786-0
KM12 = tested on: KM12
M14 = tested on: M14
SF-539 = tested on: SF-539
MDA-MB-435 = tested on: MDA-MB-435
DU-145 = tested on: DU-145
T47D = tested on: T47D
IGROV-1 = tested on: IGROV-1
SK-MEL-28 = tested on: SK-MEL-28
SF-268 = tested on: SF-268
RPMI-8226 = tested on: RPMI-8226
EKVX = tested on: EKVX
SR = tested on: SR
MCF7 = tested on: MCF7
HCC 2998 = tested on: HCC 2998
SF-295 = tested on: SF-295
HCT-15 = tested on: HCT-15
TK-10 = tested on: TK-10
SNB-19 = tested on: SNB-19
SW-620 = tested on: SW-620
HOP-62 = tested on: HOP-62
HOP-92 = tested on: HOP-92
OVCAR-4 = tested on: OVCAR-4
HCT-116 = tested on: HCT-116
RXF 393 = tested on: RXF 393
A549 = tested on: A549
SK-MEL-5 = tested on: SK-MEL-5
MDA-MB-231 = tested on: MDA-MB-231
K562 = tested on: K562
MDA-N = tested on: MDA-N
ACHN = tested on: ACHN
NCI/ADR-RES = tested on: NCI/ADR-RES
CCRF-CEM = tested on: CCRF-CEM
SK-OV-3 = tested on: SK-OV-3
UACC-62 = tested on: UACC-62
NCI-H23 = tested on: NCI-H23
PC-3 = tested on: PC-3
NCI-H522 = tested on: NCI-H522
MOLT-4 = tested on: MOLT-4
SNB-75 = tested on: SNB-75
U-251 = tested on: U-251
HL-60 = tested on: HL-60
SN12C = tested on: SN12C
NCI-H226 = tested on: NCI-H226
LOX IMVI = tested on: LOX IMVI
OVCAR-3 = tested on: OVCAR-3
SK-MEL-2 = tested on: SK-MEL-2
UO-31 = tested on: UO-31
NCI-H460 = tested on: NCI-H460
OVCAR-5 = tested on: OVCAR-5

Measured: GI50

COC1(C)/C=N/CC(C)(C)NC(=O)C(C)(OC)/C=N/CC(C)(C)NC1=O (configuration not stated)
> 10 µM: HCT-15
inactive: Malme-3M > 10 µM | UACC-257 > 10 µM | CAKI-1 > 10 µM | OVCAR-8 > 10 µM | COLO 205 > 10 µM | Hs-578T > 10 µM | BT-549 > 10 µM | HT-29 > 10 µM | 786-0 > 10 µM | KM12 > 10 µM | M14 > 10 µM | SF-539 > 10 µM | MDA-MB-435 > 10 µM | DU-145 > 10 µM | T47D > 10 µM | IGROV-1 > 10 µM | SK-MEL-28 > 10 µM | SF-268 > 10 µM | RPMI-8226 > 10 µM | EKVX > 10 µM | SR > 10 µM | MCF7 > 10 µM | HCC 2998 > 10 µM | SF-295 > 10 µM | TK-10 > 10 µM | SNB-19 > 10 µM | SW-620 > 10 µM | HOP-62 > 10 µM | HOP-92 > 10 µM | OVCAR-4 > 10 µM | HCT-116 > 10 µM | RXF 393 > 10 µM | A549 > 10 µM | SK-MEL-5 > 10 µM | MDA-MB-231 > 10 µM | K562 > 10 µM | MDA-N > 10 µM | ACHN > 10 µM | NCI/ADR-RES > 10 µM | CCRF-CEM > 10 µM | SK-OV-3 > 10 µM | UACC-62 > 10 µM | NCI-H23 > 10 µM | PC-3 > 10 µM | NCI-H522 3.53 µM | MOLT-4 > 10 µM | SNB-75 > 10 µM | U-251 > 10 µM | HL-60 > 10 µM | SN12C > 10 µM

COP(=O)(C(/C=C/c1ccccc1)OC(C)=O)[C@@H]1CCCC[C@H]1N(CC(C)(C)C)C(C)=O (some centres not stated)
15.9 µM: HCT-15
inactive: Malme-3M 18.2 µM | UACC-257 14.3 µM | CAKI-1 28 µM | OVCAR-8 16.8 µM | COLO 205 13.9 µM | NCI-H226 12 µM | Hs-578T 12.8 µM | BT-549 16.8 µM | HT-29 10.2 µM | 786-0 17.3 µM | KM12 26.2 µM | M14 14.4 µM | SF-539 17.9 µM | MDA-MB-435 14.5 µM | LOX IMVI 15.8 µM | DU-145 15 µM | T47D 5.87 µM | IGROV-1 10.6 µM | SK-MEL-28 20.4 µM | SF-268 16.6 µM | EKVX 20.7 µM | OVCAR-3 14.5 µM | SR 15 µM | MCF7 22.5 µM | HCC 2998 12.6 µM | SF-295 16.3 µM | TK-10 20.2 µM | SNB-19 29 µM | SK-MEL-2 15.4 µM | SW-620 16.7 µM | HOP-62 18.2 µM | OVCAR-4 5.62 µM | HCT-116 10.9 µM | RXF 393 7.29 µM | A549 16.8 µM | SK-MEL-5 14 µM | MDA-MB-231 14.8 µM | K562 22.4 µM | MDA-N 15.6 µM | ACHN 16.3 µM | UO-31 13.9 µM | NCI/ADR-RES 15.1 µM | CCRF-CEM 14.5 µM | SK-OV-3 23.1 µM | UACC-62 14 µM | NCI-H460 13.4 µM | OVCAR-5 19.2 µM | NCI-H23 15.8 µM | PC-3 14 µM | NCI-H522 12.1 µM | MOLT-4 7.93 µM | SNB-75 3.94 µM | U-251 15.8 µM | HL-60 14.6 µM | SN12C 14.8 µM
